Assay results as given in patent publication US8338108B2, “Agent for promoting the production of thioredoxin” (Kyoto University, priority 2006, dated 2012).

Tested on: A549 cells
Assay: Cytoprotective action to stimulation by cigarette smoke extract (LDH assay)
Assay type: cell-based, human
Conditions: NAC 0.1 mM, FIG. 2
Protocol: A549 cells were pre-incubated for 16 hours with addition of a test substance (0.01 U/mL) in a DMEM medium wherefrom thiol was removed. Incubation was conducted for 6 hours more after addition of a cigarette smoke extract […] and, after that, LDH in the supernatant liquid of the culture was measured by means of an LDH assay (Roche Diagnostics) and used as an index for viability of the cells. The cigarette smoke extract (CSE) was prepared using a cigarette smoke generator SG-200 (Shibata Kagaku). Thus, smoke of ten cigarettes (Kentucky Research Cigarette 2R4F) which was passed through 10 mL of DMEM wherefrom thiol was removed (10% HEPES was added thereto) was defined as 100% CSE and used after appropriately diluting to the concentrations which were suitable for the experiments.

`CC(=O)N[C@@H](CS)C(=O)O` [NAC, N-acetylcysteine] was tested, and the “cell injury by CSE, effect of the extract compared with NAC” value was “identical”.
